Publication PMC9861623, “New Ferulic Acid and Amino Acid Derivatives with Increased Cosmeceutical and Pharmaceutical Potential” (Pharmaceutics, 2022)
Several values for one entry are separate records, joined by “and”; a condition that tells them apart may be missing. Identical values can stand only once.

Experiments:
[1] = n-octanol/water partition coefficient by shake flask method; assay type: physicochemical
Method: The n-octanol/water partition coefficient (log PO/W) was determined for ferulic acid and its derivatives by shake flask method. n-Octanol saturated with water and water saturated with n-octanol were prepared at 25 °C, 24 h prior to their use in the experiments. Then, a sample of 10 mg of compound was weighed with the accuracy of 0.01 mg in a 16 cm^3 screwed vial and dissolved in 5 cm^3 of n-octanol. Next, 5 cm^3 of water was added to the vial. The resulting two-phase mixture was kept in water bath shaker at 25 °C for 2 h and was strongly shaken to reach the partition equilibrium of the compound between the phases. Then the mixture was left unshaken for 30 min and 1.0 cm^3 of water phase was carefully taken out to centrifuge tube. The sample was next centrifuged for 10 min at 7500 rpm at 25 °C to ensure the most precise phase separation. The concentration of compound in water phase was then determined using HPLC method. The partition coefficient, log PO/W was calculated according to the formula: logPO/W=logC0V0−CWVW/CWVW where: C0—initial concentration of the compound in n-octanol, calculated based on the weighed mass of compound, mg·cm^−^3; V0—volume of n-octanol, cm^3; CW—concentration of the compound in water after partition equilibrium, mg·cm^−^3; VW—volume of water, cm^3.

[2] = DPPH radical scavenging assay of the compounds
Method: (§1) To determine the antioxidant capacity of ferulic acid and its derivatives the DPPH method was used. The analyses were performed using the Hitachi UV-Vis Spectrophotometer U-5100 at the wavelength λ = 517 nm. Trolox (6-hydroxy-2,5,7,8-tetramethylchroman-2-carboxylic acid) was used as a reference substance. The antioxidant activity was expressed as %RSA and mmol Trolox dm^−3. […]. Blank samples without antioxidant were prepared in the same way. The tubes were wrapped in aluminum foil and were sealed with a stopper and then incubated for 10 min at room temperature. After this time, spectrophotometric measurements were carried out in triplicate. For determination of antioxidant activity of the acceptor fluid after 24 h of permeation and solutions obtained by extraction of the skin obtained after penetration study, 0.15 mL samples of each solutions were separately added to 2.85 mL of DPPH solution and spectrophotometric measurements were performed. The antioxidant activity was expressed as mmol Trolox·dm^−3.

[3] = Skin permeation in Franz diffusion cells; assay type: in vitro ADME, pig; conditions: 24 h, 10 mg as FA applied
Method: In the experiment, abdominal porcine skin coming from the local slaughterhouse was used. Pig skin was chosen because of its similar permeability to human skin [34, 35]. The fresh abdominal porcine skin was washed several times in PBS buffer pH 7.4. The skin of 0.5 mm in thickness was dermatomed and divided into 2 cm × 2 cm pieces. The skin samples were wrapped in aluminum foil and stored at −20 °C until use, not longer than 3 months. According to Badran et al., this storage time at this temperature is safe to keep skin barrier properties. Immediately before the experiment, the skin samples were slowly thawed at room temperature for 30 min and then were hydrated by PBS pH 7.4 [37, 38, 39, 40]. Such prepared skin was mounted on donor chamber. Only the undamaged skin pieces with an even thickness were chosen for experiments. The integrity of the skin was checked by impedance measurement using an LCRmeter4080 (Conrad Electronic, Hirschau, Germany), operated in parallel mode at an alternating frequency of 120 Hz (error at kΩ values < 0.5%). The tips of measuring probes were immersed in the donor and acceptor chamber containing PBS (pH 7.4), as described previously. Only skin samples of impedance > 3 kΩ were applied as such impedance is similar to the electrical resistance of human skin [42].
The concentration of FA and its derivatives in the acceptor fluid and in the fluid obtained by skin extraction after permeation experiment was assessed using liquid chromatography system (Knauer, Berlin, Germany) consisting of a model 2600 UV detector, Smartline model 1050 pump and Smartline model 3950 autosampler. HPLC was controlled by ClarityChrom 2009 software. The detector was operated at 280 nm. The separations were performed on 125 mm × 4 mm ID chromatographic column filled with Hyperisil ODS (C18), particle size 5 µm, in isocratic mode. The mobile phase consisted of acetonitrile, 1% acetic acid, and MeOH (47/47/6 v/v/v) and was pumped at flow rate of 1 mL min^−1. The column temperature was set at 25 °C, and the injection volume was 20 µL.
(§2) The permeation experiments were performed using Franz diffusion cells (Phoenix DB-6, ABL&E-JASCO, Wien, Austria). The diffusion was 1 cm^2. The volume of the acceptor chamber was 8 mL. This chamber was filled with PBS solution (pH 7.4). During experiment, a constant temperature of 37.0 ± 0.5 °C was maintained in each diffusion unit. The acceptor chamber content was stirred with a magnetic stirring bar at the same speed for all cells. The prepared pig skin was mounted on each donor chamber. As previously mentioned, only undamaged skin pieces with an even thickness were chosen for experiments. Thereafter, the hydrogel or emulsion vehicle/preparation in 1 g portion was put on the skin in donor cells. For comparison, 1 mL ethanolic solution containing either FA or its derivatives was applied to another donor chamber. The amount of the FA and its derivatives applied on the skin expressed as the mass of ferulic acid was 0.01 g and was the same for each carrier. The penetration experiments were carried out for 24 h. The samples were collected after 1 h, 2 h, 3 h, 4 h, 5 h, 6 h, 8 h, and 24 h. Aliquots of the acceptor fluid (0.5 mL) were withdrawn and to each acceptor chamber the same volume of fresh PBS solution was added. The FA and its derivatives’ concentrations in the acceptor fluid were measured by HPLC method (Section 2.6.2). The cumulative mass (µg·cm^−2) and penetration rate (µg·cm^−2·h^−1) were calculated. The acceptor fluid collected after 24 h of permeation was also measured for antioxidant activity and total polyphenol content (as described in Section 2.5.1 and Section 2.5.2).

[4] = DPPH antioxidant activity of acceptor fluid after 24 h permeation; set-up: species or system pig; conditions: after 24 h penetration
Method: as §1, §2

[5] = DPPH antioxidant activity of solution obtained after skin extraction; set-up: species or system pig; conditions: after 24 h penetration
Method: as §1
(§3) The accumulation of the FA and its derivatives in the skin after 24 h permeation process through the skin were determined using a modification of the methods described by Janus et al. and Taokaew et al.. After 24 h of permeation experiment, the skin samples were removed from the Franz diffusion cell, washed three times with 0.5% sodium lauryl sulfate solution and dried at room temperature. Next, after cutting out the diffusion area of each skin sample, the samples were immersed in 2 mL of absolute ethanol and continuously stirred at 300 rpm at room temperature for 24 h. The samples were then centrifuged, and clear solutions were collected and analyzed by HPLC method for the determination of FA and its derivatives. The accumulation of the active substance in the skin was calculated by dividing the amount of the drug remaining in the skin by a mass of skin sample and was expressed in mass active substance per mass of the skin (µg g^−1). For solution obtained after skin extraction, the antioxidant activity and total polyphenol content were also determined (as described in Section 2.5.1 and Section 2.5.2).

[6] = Accumulation in the skin after 24 h permeation; assay type: in vitro ADME, pig; conditions: 24 h penetration, ethanol solution
Method: as §3

[7] = Thermogravimetric (TG) analysis, thermal stability; assay type: physicochemical; conditions: air atmosphere, 10 °C·min^−1
Method: Samples of 2–5 mg, loaded in aluminium crucibles, were heated from 30 °C to 600 °C at the heating rate of 10 °C·min^−1, in the air atmosphere (25 mL·min^−1) with nitrogen flow (10 mL·min^−1) as the purge gas.

[8] = system: Murine fibroblasts (L929); test: Cytotoxicity, PrestoBlue resazurin-based cell viability assay; conditions: 2.0 mM, 24 h, PrestoBlue, normalized to control
Method: The cell biocompatibility was evaluated using a PrestoBlue HS Cell Viability Reagent (Thermo Fisher Scientific, MA USA) based on the reduction of the resazurin to highly fluorescent resorufin, of which the amount is directly correlated to the number of living cells. […] The cells without tested compounds were used as control. The interaction of tested compounds without cells and Prestoblue Reagent (blank wells) was excluded. After 24 h of treatment, optical microscopy imaging of L929 cells was performed using Smart Fluorescent Cell Analyzer Microscope JuLi (Seoul, Korea). Next, the PrestoBlue reagent (10 μL) was added to each well and incubated for 30 min. The fluorescence was measured using a spectrophotometric microplate reader (Infinite 200 Pro, Tecan, Männedorf, Switzerland) at ex/em: 560/594 nm. The readings were acquired from at least three independent experiments (each conducted in triplicate) and normalized to the control (100% viability).

[9] = molar ratio antioxidant:DPPH 0.1, 10 min
[10] = molar ratio antioxidant:DPPH 1.0, 10 min
[11] = molar ratio antioxidant:DPPH 2.0, 10 min

## CCCOC(=O)[C@@H]1CCCN1.COc1cc(/C=C/C(=O)O)ccc1O [PPr[FA], L-proline propyl ester ferulate]
[1]; from log PO/W
  Share of compound partitioned to n-octanol: 74%
[1]; n-octanol/water, shake flask, 25 °C
  log PO/W: 0.447 ± 0.022
[2]; [9]
  Antioxidant activity %RSA: 19.3 ± 0.001 %RSA and 19.3 ± 0.001 a %RSA
  Antioxidant activity, Trolox equivalents: 0.115 ± 0.001 mmol Trolox dm^−3 and 0.115 ± 0.001 a mmol Trolox dm^−3
[2]; [10]
  Antioxidant activity %RSA: 79.6 ± 0.001 b %RSA
  Antioxidant activity, Trolox equivalents: 0.697 ± 0.001 b mmol Trolox dm^−3
[2]; [11]
  Antioxidant activity %RSA: 87.7 ± 0.001 %RSA and 87.7 ± 0.001 b %RSA
  Antioxidant activity, Trolox equivalents: 0.775 ± 0.001 mmol Trolox dm^−3 and 0.775 ± 0.001 b mmol Trolox dm^−3
[3]; from emulsion
  Cumulative Permeation Mass: 128.80 ± 19.86 µg FA·cm^−2 and 128.80 ± 19.86 a µg FA·cm^−2
[3]; from hydrogel
  Cumulative Permeation Mass: 396.86 ± 42.13 µg FA·cm^−2 and 396.86 ± 42.13 b µg FA·cm^−2
[3]; from solution in 70% (v/v) ethanol
  Cumulative Permeation Mass: 427.00 ± 4.674 µg FA·cm^−2 and 427.00 ± 4.67 b µg FA·cm^−2
[4]; emulsion
  DPPH antioxidant activity of the acceptor fluid: 0.061 ± 0.007 mmol Trolox dm^−3 and 0.061 ± 0.007 a mmol Trolox dm^−3
[4]; ethanol solution
  DPPH antioxidant activity of the acceptor fluid: 0.094 ± 0.002 a mmol Trolox dm^−3
[4]; hydrogel
  DPPH antioxidant activity of the acceptor fluid: 0.075 ± 0.012 mmol Trolox dm^−3 and 0.075 ± 0.012 a mmol Trolox dm^−3
[5]; emulsion
  DPPH antioxidant activity of the solution obtained after skin extraction: 0.198 ± 0.006 a mmol Trolox dm^−3
[5]; ethanol solution
  DPPH antioxidant activity of the solution obtained after skin extraction: 0.259 ± 0.007 a mmol Trolox dm^−3
[5]; hydrogel
  DPPH antioxidant activity of the solution obtained after skin extraction: 0.351 ± 0.036 ab mmol Trolox dm^−3
[6]
  Accumulation in the skin compared to pure FA: accumulated in a significantly smaller amount compared to pure FA
[7]; TG
  Td onset, the onset of decomposition: 122.8 °C
[7]; TG/DTG
  Td max, temperature of the fastest mass loss of the sample: 148.7 °C
[8]
  L929 viability: 78.56 ± 2.73%
